Results taken from PMC4818977 (ChemMedChem, 2016).
Read-outs that look alike come from different tables or passages of the source.

Experiments:
UPEC biofilm formation = test: biofilm prevention assay; assay type: cell-based, uropathogenic E. coli (UPEC) strain UTI89; conditions: read-out: Biofilm IC50
FimH = FimH (Escherichia coli, UniProt Q1R2J4); assay type: cell-based, uropathogenic E. coli (UPEC) strain UTI89; conditions: for HAI: hemagglutination inhibition titer (EC>90, Figure 5 legend)
FimH lectin domain = FimH lectin domain (Escherichia coli, UniProt P08191); parameters: species or system uropathogenic E. coli (UPEC); conditions: melting temperature of FimH lectin domain, relative binding strength
[1] = in vivo mouse PK, urine mannoside concentration; conditions: mice, 50 mgkg^−1 oral gavage, 10% cyclodextrin, 1 h post-dosing
[2] = tested on: UTI89 chronically infected mice; test: murine model of chronic UTI; assay type: in vivo; conditions: 50 mgkg^−1 p.o., 10% cyclodextrin, 6 h post-dosing
[3] = i.v./p.o. crossover PK study in rat; assay type: in vivo

Sequence of FimH lectin domain (P08191 22-179): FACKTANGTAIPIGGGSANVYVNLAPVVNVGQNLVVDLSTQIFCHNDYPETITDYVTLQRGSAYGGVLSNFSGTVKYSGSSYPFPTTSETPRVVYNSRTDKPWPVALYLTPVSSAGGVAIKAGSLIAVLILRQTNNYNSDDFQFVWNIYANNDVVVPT

SMILES | IC50 (UPEC biofilm formation; biofilm prevention) | HAI (FimH) | DSF Tm (FimH lectin domain) | IC50 (UPEC biofilm formation; Escherichia coli) | initial urine concentration [1] | additional drop in CFUs per bladder relative to 5, 7 (and 17b) [2] | increase in activity in HA assay relative to 16 and 17, respectively (FimH; ortho-methyl matched pairs) | Rat F ([3]; 10 mgkg^−1 oral (p.o.) dose, 10% cyclodextrin formulation) | Rat CL ([3]; calculated from a 10 mgkg^−1 oral (p.o.) dose, 10% cyclodextrin formulation) | half-life ([3]; rat, in vivo, po, 10 mgkg^−1)
COC(=O)c1cccc(-c2ccc(O[C@H]3O[C@H](CO)[C@@H](O)[C@H](O)[C@@H]3O)cc2)c1 [Compound 2] | 0.94 µM | 1.0 µM | 73.4 °C | – | – | – | – | – | – | –
Cc1cc(-c2ccc3cc[nH]c(=O)c3c2)ccc1O[C@H]1O[C@H](CO)[C@@H](O)[C@H](O)[C@@H]1O [Compound 22, 2-methyl-4-(1-oxo-1,2-dihydroisoquinolin-7-yl)phenyl α-D-mannopyranoside] | – | 0.031 µM | 75.5 °C | 0.13 µM | elevated relative to 5 | 10 fold | fourfold | 7.0% | 408 mLmin^−1kg^−1 | < 3 h
